The source of these data is paper PMC3391913, “Cellular Immune Reactions of the Sunn Pest, Eurygaster integriceps, to the Entomopathogenic Fungus, Beauveria bassiana and Its Secondary Metabolites” (Journal of Insect Science, 2011).

This assay relates to T1, phenoloxidase (PO).
T1 construct: gene prophenoloxidase; native, unpurified hemocyte lysate supernatant of adults; bands of 46 and 59 kDa on native PAGE
As to the kind of experiment: spectrophotometric phenoloxidase assay at […] nm, fit in SigmaPlot. Type of assay: biochemical, Eurygaster integriceps. Particulars: control insects without fungal metabolite; hemocyte lysate; 3-10 mM substrate; phosphate buffer pH 6.5; 30 °C.

Take `N[C@@H](Cc1ccc(O)c(O)c1)C(=O)O` [L-dihydroxyphenylalanine]: the Km (usually the concentration of substrate that gives half-maximal velocity) amounted to 1630 µM.
